# Data taken from BindingDB's records for doi:10.1021/acschembio.5b00514 (Technische Universität München, 2015).
# Columns and labels:
# Test in all cases: Activity-based Protein Profiling (ABPP)
# Conditions in all cases: pH 7.4; 37 °C
# [1] = biological target: T1, Rhomboid domain-containing protein (Thermotoga maritima (strain ATCC 43589 / DSM 3109 / JCM 10099 / NBRC 100826 / MSB8), UniProt Q9WZ53)
# T1 sequence (Q9WZ53 whole entry): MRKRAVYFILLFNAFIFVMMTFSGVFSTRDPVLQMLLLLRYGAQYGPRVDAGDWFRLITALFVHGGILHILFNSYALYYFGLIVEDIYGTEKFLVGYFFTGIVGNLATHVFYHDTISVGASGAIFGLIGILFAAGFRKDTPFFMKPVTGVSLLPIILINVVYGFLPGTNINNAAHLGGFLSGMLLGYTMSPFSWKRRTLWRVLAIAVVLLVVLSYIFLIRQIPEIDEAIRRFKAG
# Source text: (§1) We selected several inhibitor structures and determined their apparent IC50 by competitive ABPP.
# [2] = biological target: T2, AN1-type domain-containing protein (Archaeoglobus fulgidus (strain ATCC 49558 / DSM 4304 / JCM 9628 / NBRC 100126 / VC-16), UniProt O29251)
# T2 sequence (O29251 whole entry): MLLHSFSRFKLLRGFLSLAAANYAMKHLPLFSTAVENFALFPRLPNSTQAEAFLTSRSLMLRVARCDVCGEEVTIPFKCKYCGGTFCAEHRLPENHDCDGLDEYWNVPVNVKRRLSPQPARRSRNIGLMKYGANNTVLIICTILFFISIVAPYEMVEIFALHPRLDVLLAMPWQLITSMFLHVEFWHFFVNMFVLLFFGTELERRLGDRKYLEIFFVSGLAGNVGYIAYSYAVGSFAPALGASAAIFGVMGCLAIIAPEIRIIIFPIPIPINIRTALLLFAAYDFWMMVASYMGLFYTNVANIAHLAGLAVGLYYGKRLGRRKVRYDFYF
# Source text: as §1
# Rhomboid protease GlpG [3] = biological target: T3, Rhomboid protease GlpG (Haemophilus influenzae, UniProt A0A2R3FW87)
# T3 sequence (A0A2R3FW87 whole entry): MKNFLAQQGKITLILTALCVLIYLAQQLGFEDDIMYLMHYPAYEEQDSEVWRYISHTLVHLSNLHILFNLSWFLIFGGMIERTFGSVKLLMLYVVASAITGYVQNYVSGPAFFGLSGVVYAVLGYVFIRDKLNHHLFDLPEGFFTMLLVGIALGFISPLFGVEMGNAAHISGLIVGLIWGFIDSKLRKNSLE
# Source text: as §1
# [4] = biological target: Rhomboid protease GluP [F193S,L370F,L379S,R499W] (Bacillus subtilis (strain 168), UniProt P54493, F193S/L370F/L379S/R499W)
# Sequence of Rhomboid protease GluP [F193S,L370F,L379S,R499W] (P54493 whole entry F192S/L370F/L379S/R499W): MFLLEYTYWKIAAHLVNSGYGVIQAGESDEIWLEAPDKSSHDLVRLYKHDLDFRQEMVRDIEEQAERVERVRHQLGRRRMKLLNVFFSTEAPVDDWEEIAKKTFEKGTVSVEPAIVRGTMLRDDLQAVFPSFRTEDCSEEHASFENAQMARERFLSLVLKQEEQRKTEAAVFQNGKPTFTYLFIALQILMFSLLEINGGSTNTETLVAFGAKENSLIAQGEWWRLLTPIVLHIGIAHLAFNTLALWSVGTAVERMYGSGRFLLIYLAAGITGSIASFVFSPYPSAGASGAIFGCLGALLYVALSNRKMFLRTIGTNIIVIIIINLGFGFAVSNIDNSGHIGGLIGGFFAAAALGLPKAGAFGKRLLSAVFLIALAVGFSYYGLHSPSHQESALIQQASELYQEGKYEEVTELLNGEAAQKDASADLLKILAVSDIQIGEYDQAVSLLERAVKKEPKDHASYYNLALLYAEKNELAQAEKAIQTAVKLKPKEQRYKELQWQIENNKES
# Source text: as §1
# [5] = biological target: T4, Rhomboid-related protein 3 (Mus musculus, UniProt P58873)
# T4 sequence (P58873 whole entry): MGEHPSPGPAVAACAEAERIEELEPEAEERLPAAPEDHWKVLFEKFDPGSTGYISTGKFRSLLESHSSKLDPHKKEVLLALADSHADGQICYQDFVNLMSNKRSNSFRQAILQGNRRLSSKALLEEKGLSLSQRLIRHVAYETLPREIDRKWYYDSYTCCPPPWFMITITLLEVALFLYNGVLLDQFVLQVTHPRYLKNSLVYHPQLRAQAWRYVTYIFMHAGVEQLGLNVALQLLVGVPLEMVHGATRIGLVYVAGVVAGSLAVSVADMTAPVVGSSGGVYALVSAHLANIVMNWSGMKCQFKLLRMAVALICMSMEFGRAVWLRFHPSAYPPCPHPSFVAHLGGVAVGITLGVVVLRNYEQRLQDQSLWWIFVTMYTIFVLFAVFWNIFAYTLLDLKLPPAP
# Source text: as §1
# [6] = biological target: T5, Rhomboid domain-containing protein (Pyrococcus horikoshii (strain ATCC 700860 / DSM 12428 / JCM 9974 / NBRC 100139 / OT-3), UniProt O59166)
# T5 sequence (O59166 whole entry): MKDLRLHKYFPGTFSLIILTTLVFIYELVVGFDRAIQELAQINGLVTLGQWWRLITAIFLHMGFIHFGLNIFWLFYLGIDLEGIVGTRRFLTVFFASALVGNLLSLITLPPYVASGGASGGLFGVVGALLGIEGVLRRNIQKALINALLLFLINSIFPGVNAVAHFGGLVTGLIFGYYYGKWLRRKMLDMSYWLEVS
# Source text: as §1
# [7] = biological target: T6, Rhomboid-related protein 1 (Mus musculus, UniProt Q8VC82)
# T6 sequence (Q8VC82 whole entry): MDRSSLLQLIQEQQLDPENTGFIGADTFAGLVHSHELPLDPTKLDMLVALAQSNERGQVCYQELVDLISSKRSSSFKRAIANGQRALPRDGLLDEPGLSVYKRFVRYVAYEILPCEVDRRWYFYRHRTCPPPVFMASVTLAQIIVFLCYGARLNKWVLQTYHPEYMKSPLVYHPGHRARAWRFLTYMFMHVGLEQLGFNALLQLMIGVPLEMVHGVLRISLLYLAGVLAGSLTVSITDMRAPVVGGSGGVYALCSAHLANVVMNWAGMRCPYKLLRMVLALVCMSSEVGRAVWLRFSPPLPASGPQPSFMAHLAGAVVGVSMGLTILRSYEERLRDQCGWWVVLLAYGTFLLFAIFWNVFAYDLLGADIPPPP
# Source text: as §1
# [8] = biological target: T7, Rhomboid domain-containing protein (Aquifex aeolicus (strain VF5), UniProt O67346)
# T7 sequence (O67346 whole entry): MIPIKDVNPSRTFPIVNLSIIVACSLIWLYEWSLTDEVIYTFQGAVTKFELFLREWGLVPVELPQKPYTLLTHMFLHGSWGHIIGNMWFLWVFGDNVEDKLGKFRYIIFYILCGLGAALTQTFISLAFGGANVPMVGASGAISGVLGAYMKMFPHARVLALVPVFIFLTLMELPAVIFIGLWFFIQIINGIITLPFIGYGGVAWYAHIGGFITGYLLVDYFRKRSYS
# Source text: as §1
# Rhomboid protease GlpG [9] = biological target: T8, Rhomboid protease GlpG (Escherichia coli (strain K12), UniProt P09391)
# T8 sequence (P09391 whole entry): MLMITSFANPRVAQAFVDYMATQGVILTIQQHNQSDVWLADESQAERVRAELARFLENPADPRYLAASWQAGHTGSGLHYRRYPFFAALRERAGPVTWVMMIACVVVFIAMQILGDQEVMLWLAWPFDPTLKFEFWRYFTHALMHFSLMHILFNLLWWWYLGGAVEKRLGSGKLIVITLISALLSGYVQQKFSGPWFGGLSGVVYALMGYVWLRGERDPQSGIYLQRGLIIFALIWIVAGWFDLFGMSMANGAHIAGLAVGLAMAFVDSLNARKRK
# Source text: as §1
# GlpG protein = biological target: T9, GlpG protein (Vibrio cholerae, UniProt Q9KVP2)
# T9 sequence (Q9KVP2 whole entry): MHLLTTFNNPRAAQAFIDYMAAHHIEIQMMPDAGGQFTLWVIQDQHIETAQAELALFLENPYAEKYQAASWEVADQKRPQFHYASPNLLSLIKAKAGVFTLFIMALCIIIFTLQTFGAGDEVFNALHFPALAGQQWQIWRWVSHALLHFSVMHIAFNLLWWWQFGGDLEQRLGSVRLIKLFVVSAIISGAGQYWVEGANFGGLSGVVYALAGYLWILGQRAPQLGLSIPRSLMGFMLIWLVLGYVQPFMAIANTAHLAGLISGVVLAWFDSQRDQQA
# Source text: as §1
# Rhomboid protease AarA = biological target: T10, Rhomboid protease AarA (Providencia stuartii, UniProt P46116)
# T10 sequence (P46116 whole entry): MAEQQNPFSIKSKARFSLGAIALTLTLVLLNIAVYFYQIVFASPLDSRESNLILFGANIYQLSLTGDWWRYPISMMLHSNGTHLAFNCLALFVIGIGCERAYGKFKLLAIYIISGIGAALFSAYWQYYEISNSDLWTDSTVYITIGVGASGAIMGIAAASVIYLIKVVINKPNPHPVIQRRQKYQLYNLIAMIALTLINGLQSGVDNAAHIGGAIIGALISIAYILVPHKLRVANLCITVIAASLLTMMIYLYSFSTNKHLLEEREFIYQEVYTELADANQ
# Source text: as §1
Structure (SMILES),IC50 [1],IC50 [2],IC50 (Rhomboid protease GlpG [3]),IC50 [4],IC50 [5],IC50 [6],IC50 [7],IC50 [8],IC50 (Rhomboid protease GlpG [9]),IC50 (GlpG protein),IC50 (Rhomboid protease AarA)
C#CCCC[C@@H]1OC(=O)[C@H]1CCCCC [(4S)‐4‐(pent‐4‐yn‐1‐yl)‐3‐pentyloxetan‐2‐one (47)],27 µM,,,,,,,,,,
"C#CCCC[C@@H]1OC(=O)[C@H]1c1cc(OC)c(OC)c(OC)c1 [(4S)‐4‐(pent‐4‐yn‐1‐yl)‐3‐(3,4,5‐trimethoxyphenyl)oxetan‐2‐one (45)]",,5 µM,65 µM,,,,,,,,
O=c1oc(Cl)c(Cl)c2ccccc12,1 µM,8.1 µM,0.66 µM,4.1 µM,70 µM,16 µM,28 µM,1.1 µM,19 µM,27 µM,10 µM
C#CCCC[C@@H]1OC(=O)[C@H]1CCCC [(4S)‐3‐butyl‐4‐(pent‐4‐yn‐1‐yl)oxetan‐2‐one (48)],48 µM,,,,,,,,44 µM,,
O=c1oc(OCCCCCc2ccccc2)c(Cl)c2ccc([N+](=O)[O-])cc12 [4‐Chloro‐7‐nitro‐3‐[(5‐phenylpentyl)oxy]isochromen‐1‐one (21)],28 µM,,4.6 µM,25 µM,24 µM,25 µM,39 µM,1.7 µM,,76 µM,10 µM
